# In patent US20230167467A1, “METHODS AND COMPOSITIONS FOR THE PRODUCTION OF ISOBUTENE” (University of Alaska Anchorage, priority 2020, published 2023):
# Test system: Engineered strains of E. coli
# Assay type: cell-based
# [1] = after solvent exposure, vs positive control
smiles,measurement,setting,value
CCC(C)CC [3-methylpentane],"expression of acid resistance genes (gad, adi families)",,downregulated
same,"expression of chaperone proteins groLS, spy, and dnaJK",,highly upregulated
same,expression of dihydroxyacetone kinase genes dhaKLM,,upregulated
same,expression of flagellar protein synthesis and assembly genes,,downregulated
same,expression of gadE and adiY,,significantly downregulated
same,expression of galactitol metabolism genes gatABD,,upregulated
same,expression of glpABC (glycerol to glycerone phosphate),,upregulated
same,expression of heat shock proteins and chaperones hslJORUV,,strongest increases
same,expression of ibpAB and clpAB (protein protection and repair),,strongest increases
same,expression of marABC (multiple antibiotic resistance),,upregulated
same,expression of nitrate reductase genes narGHJKP,,upregulated
same,expression of phage shock genes pspABCDE,,highly upregulated
same,change in expression of gene adiA,[1],−2.19 ± 0.86
same,change in expression of gene adiC,[1],−1.60 ± 1.02
same,change in expression of gene adiY,[1],−2.88 ± 0.66
same,change in expression of gene bhsA,[1],2.98 ± 0.60
same,change in expression of gene bssR,[1],1.81 ± 0.44
same,change in expression of gene bssS,[1],5.42 ± 0.84
same,change in expression of gene clpA,[1],2.69 ± 0.63
same,change in expression of gene clpB,[1],5.30 ± 0.69
same,change in expression of gene clpP,[1],1.74 ± 0.59
same,change in expression of gene coaA,[1],−1.35 ± 0.88
same,change in expression of gene coaD,[1],1.13 ± 0.90
same,change in expression of gene cspA,[1],−4.58 ± 0.58
same,change in expression of gene cspB,[1],−4.38 ± 1.31
same,change in expression of gene cspC,[1],−2.37 ± 0.90
same,change in expression of gene cspD,[1],2.53 ± 0.57
same,change in expression of gene cspE,[1],−0.36 ± 0.63
same,change in expression of gene cspF,[1],−3.22 ± 1.04
same,change in expression of gene dhaK,[1],4.32 ± 0.58
same,change in expression of gene dhaL,[1],3.43 ± 0.62
same,change in expression of gene dnaJ,[1],5.07 ± 0.69
same,change in expression of gene dnaK,[1],4.55 ± 0.66
same,change in expression of gene fabA,[1],−0.74 ± 0.75
same,change in expression of gene fabB,[1],2.87 ± 0.66
same,change in expression of gene fabD,[1],−0.97 ± 0.52
same,change in expression of gene flgA,[1],−1.37 ± 1.53
same,change in expression of gene flgB,[1],−3.25 ± 1.50
same,change in expression of gene flgC,[1],−4.33 ± 1.93
same,change in expression of gene flgD,[1],−3.56 ± 1.87
same,change in expression of gene flgE,[1],−2.72 ± 1.17
same,change in expression of gene flgF,[1],−2.66 ± 1.57
same,change in expression of gene flgG,[1],−3.06 ± 1.48
same,change in expression of gene flgH,[1],−2.28 ± 1.70
same,change in expression of gene gabD,[1],0.24 ± 1.31
same,change in expression of gene gabP,[1],1.14 ± 1.28
same,change in expression of gene gabT,[1],0.62 ± 1.27
same,change in expression of gene gadA,[1],−1.66 ± 0.69
same,change in expression of gene gadB,[1],−1.26 ± 0.80
same,change in expression of gene gadC,[1],−0.31 ± 0.80
same,change in expression of gene gadE,[1],−2.58 ± 0.60
same,change in expression of gene gadW,[1],−2.78 ± 0.95
same,change in expression of gene gadX,[1],−2.92 ± 0.57
same,change in expression of gene gadY,[1],−4.93 ± 0.81
same,change in expression of gene glpA,[1],8.12 ± 0.87
same,change in expression of gene glpB,[1],5.89 ± 0.63
same,change in expression of gene glpC,[1],6.69 ± 0.79
same,change in expression of gene groL,[1],4.27 ± 0.57
same,change in expression of gene groS,[1],4.18 ± 0.50
same,change in expression of gene hchA,[1],1.65 ± 0.60
same,change in expression of gene hslJ,[1],2.40 ± 0.65
same,change in expression of gene hslO,[1],3.37 ± 0.64
same,change in expression of gene hslR,[1],3.53 ± 0.65
same,change in expression of gene hslU,[1],3.65 ± 0.55
same,change in expression of gene hslV,[1],3.32 ± 0.61
same,change in expression of gene ibpA,[1],8.01 ± 1.21
same,change in expression of gene ibpB,[1],9.01 ± 1.50
same,change in expression of gene lhgO,[1],1.21 ± 1.64
same,change in expression of gene lipA,[1],0.26 ± 0.60
same,change in expression of gene lipB,[1],0.71 ± 0.63
same,change in expression of gene narG,[1],4.24 ± 0.65
same,change in expression of gene narH,[1],3.41 ± 0.61
same,change in expression of gene narI,[1],2.28 ± 0.92
same,change in expression of gene narJ,[1],2.34 ± 0.68
same,change in expression of gene narK,[1],2.75 ± 0.84
same,change in expression of gene potA,[1],−2.43 ± 0.80
same,change in expression of gene potB,[1],−0.51 ± 1.28
same,change in expression of gene potC,[1],−0.27 ± 1.18
same,change in expression of gene pspA,[1],9.23 ± 0.55
same,change in expression of gene pspB,[1],7.09 ± 0.68
same,change in expression of gene rpoA,[1],0.54 ± 0.44
same,change in expression of gene rpoB,[1],0.33 ± 0.40
same,change in expression of gene rpoC,[1],0.70 ± 0.39
same,change in expression of gene rpoD,[1],3.38 ± 0.70
same,change in expression of gene rpoE,[1],−2.07 ± 0.62
same,change in expression of gene rpoH,[1],0.71 ± 0.52
same,change in expression of gene rpoN,[1],−1.28 ± 0.49
same,change in expression of gene rpoS,[1],0.53 ± 0.47
same,change in expression of gene rpoZ,[1],−1.07 ± 0.53
same,change in expression of gene spy,[1],4.73 ± 0.87
same,change in expression of gene tatA,[1],−1.05 ± 0.51
same,change in expression of gene tatB,[1],−0.93 ± 0.58
same,change in expression of gene tatC,[1],−0.35 ± 1.08
same,change in expression of gene tatD,[1],−1.73 ± 1.12
same,change in expression of gene tatE,[1],0.79 ± 0.63
same,number of genes with significant changes in expression,"vs control, Bon Ferroni corrected p-value<0.05",414 genes
